From patent US20240058453A1 (priority 2022, published 2024)

System: bacteria
Type: cell-based

NC[C@H]1O[C@H](O[C@H]2[C@H](O)[C@@H](O[C@H]3O[C@H](CO)[C@@H](O)[C@H](N)[C@H]3O)[C@H](N)C[C@@H]2N)[C@H](N)C[C@@H]1O [tobramycin]
bacteria killing activity: comparable activity
